Results taken from ChEMBL document CHEMBL1649350, “Receptor-dependent (RD) 3D-QSAR approach of a series of benzylpiperidine inhibitors of human acetylcholinesterase (HuAChE)” (Eur J Med Chem, 2011).

Each compound was assayed against Acetylcholinesterase (Homo sapiens, UniProt P22303).
Chain of Acetylcholinesterase (P22303 whole entry): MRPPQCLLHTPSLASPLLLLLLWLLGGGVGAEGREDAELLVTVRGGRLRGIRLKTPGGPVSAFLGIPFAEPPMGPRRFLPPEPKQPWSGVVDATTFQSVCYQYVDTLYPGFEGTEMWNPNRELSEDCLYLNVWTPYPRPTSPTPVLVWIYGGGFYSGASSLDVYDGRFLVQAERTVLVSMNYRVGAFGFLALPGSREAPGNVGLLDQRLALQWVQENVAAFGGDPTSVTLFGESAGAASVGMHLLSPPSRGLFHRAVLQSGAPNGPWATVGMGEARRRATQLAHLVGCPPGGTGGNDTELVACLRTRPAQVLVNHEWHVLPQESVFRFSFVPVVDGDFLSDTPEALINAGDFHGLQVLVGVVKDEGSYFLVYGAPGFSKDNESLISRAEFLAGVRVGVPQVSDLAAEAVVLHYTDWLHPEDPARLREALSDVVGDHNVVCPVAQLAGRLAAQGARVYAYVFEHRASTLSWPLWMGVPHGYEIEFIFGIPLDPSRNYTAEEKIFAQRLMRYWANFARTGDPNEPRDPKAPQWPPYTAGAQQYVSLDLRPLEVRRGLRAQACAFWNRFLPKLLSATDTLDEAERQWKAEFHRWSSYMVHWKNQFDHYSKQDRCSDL
Description: Inhibition of human acetylcholinesterase

`O=C(CCC1CCN(Cc2ccccc2)CC1)c1ccc2c(c1)CCCN2` and `O=C(CCC1CCN(Cc2ccccc2)CC1)c1ccc2c(c1)CCN2` are within 1.5-fold of each other in IC50: 0.0646 µM for the first, 0.0525 µM for the second.

First: O=C(CCC1CCN(Cc2ccccc2)CC1)c1ccc2c(c1)NC(c1ccccc1)N2 (stereo not drawn)
Second: O=C(CCC1CCN(Cc2ccccc2)CC1)c1ccc2c(c1)NCCC2
The IC50 of the first is 5-fold lower: 0.0331 µM for the first, 0.166 µM for the second.

`O=C(CCC1CCN(Cc2ccccc2)CC1)c1ccc2c(c1)CNCCC2` and `O=C(CCC1CCN(Cc2ccccc2)CC1)c1ccc2c(c1)CCNCC2` are within 1.5-fold of each other in IC50: 0.0229 µM for the first, 0.0251 µM for the second.

Going from `O=C(CCC1CCN(Cc2ccccc2)CC1)c1ccc2c(c1)CNCCO2` to `O=C(CCC1CCN(Cc2ccccc2)CC1)c1cc2c3c(c1)CC(=O)N3CCC2`, the IC50 falls from 0.0398 µM to 0.00363 µM (11-fold). The second is the more potent here.

First: O=C(CCC1CCN(Cc2ccccc2)CC1)c1cc2c3c(c1)CCN3C(=O)CC2
Second: O=C(CCC1CCN(Cc2ccccc2)CC1)c1cc2c3c(c1)CCC(=O)N3CCC2
The IC50 of the first is 1.6-fold lower: 0.00977 µM for the first, 0.0158 µM for the second.

Compared with `O=C(CCC1CCN(Cc2ccccc2F)CC1)c1cc2c3c(ccn3C(=O)CC2)c1`, `O=C(CCC1CCN(Cc2ccccc2Cl)CC1)c1cc2c3c(ccn3C(=O)CC2)c1` is 2-fold higher in IC50: 0.00251 µM for the first, 0.00513 µM for the second. The first is the more potent here.

First: O=C(CCC1CCN(Cc2cccc(F)c2)CC1)c1cc2c3c(ccn3C(=O)CC2)c1
Second: O=C(CCC1CCN(Cc2cccc(Cl)c2)CC1)c1cc2c3c(ccn3C(=O)CC2)c1
The IC50 of the first is 3.8-fold lower: 0.00129 µM for the first, 0.0049 µM for the second. The first is the more potent here.

Going from `O=C(CCC1CCN(Cc2ccc(Cl)cc2)CC1)c1cc2c3c(ccn3C(=O)CC2)c1` to `O=C(CCC1CCN(Cc2ccc(F)cc2)CC1)c1cc2c3c(ccn3C(=O)CC2)c1`, the IC50 falls from 0.151 µM to 0.00457 µM (33-fold).

Compared with `COc1ccccc1CN1CCC(CCC(=O)c2cc3c4c(ccn4C(=O)CC3)c2)CC1`, `O=C(CCC1CCN(Cc2ccccc2O)CC1)c1cc2c3c(ccn3C(=O)CC2)c1` is 59-fold lower in IC50: 0.0646 µM for the first, 0.0011 µM for the second. The second is the more potent here.

Compared with `COc1cccc(CN2CCC(CCC(=O)c3cc4c5c(ccn5C(=O)CC4)c3)CC2)c1`, `O=C(CCC1CCN(Cc2cccc(O)c2)CC1)c1cc2c3c(ccn3C(=O)CC2)c1` is 14-fold lower in IC50: 0.126 µM for the first, 0.00871 µM for the second. The second is the more potent here.

Compared with `COc1ccc(CN2CCC(CCC(=O)c3cc4c5c(ccn5C(=O)CC4)c3)CC2)cc1`, `O=C(CCC1CCN(Cc2ccc(O)cc2)CC1)c1cc2c3c(ccn3C(=O)CC2)c1` is 710-fold lower in IC50: 0.347 µM for the first, 0.00049 µM for the second. The second is the more potent here.

Going from `O=C(CCC1CCN(Cc2ccccc2[N+](=O)[O-])CC1)c1cc2c3c(ccn3C(=O)CC2)c1` to `O=C(CCC1CCN(Cc2cccc([N+](=O)[O-])c2)CC1)c1cc2c3c(ccn3C(=O)CC2)c1`, the IC50 falls from 0.0891 µM to 0.00288 µM (31-fold). The second is the more potent here.

`O=C(CCC1CCN(Cc2ccccc2)CC1)c1cc2c3c(c1)CCN3C(=O)CCC2` and `O=C(CCC1CCN(Cc2ccc([N+](=O)[O-])cc2)CC1)c1cc2c3c(ccn3C(=O)CC2)c1` are within 1.5-fold of each other in IC50: 0.0525 µM for the first, 0.0427 µM for the second.

Compared with `CS(=O)(=O)Nc1ccc2c(CCC3CCN(Cc4ccccc4)CC3)noc2c1`, `c1ccc(CN2CCC(CCc3noc4cc(C5CCCCC5)ccc34)CC2)cc1` is 18-fold lower in IC50: 0.0141 µM for the first, 0.000794 µM for the second. The second is the more potent here.
